pKi: −log10 of the molar value. “And” between values parts separate entries of the source, which are not always exact repeats. Equal values may be shown once.
Each compound was assayed against Platelet-activating factor receptor (Homo sapiens, UniProt P25105).
Sequence of Platelet-activating factor receptor (P25105 whole entry): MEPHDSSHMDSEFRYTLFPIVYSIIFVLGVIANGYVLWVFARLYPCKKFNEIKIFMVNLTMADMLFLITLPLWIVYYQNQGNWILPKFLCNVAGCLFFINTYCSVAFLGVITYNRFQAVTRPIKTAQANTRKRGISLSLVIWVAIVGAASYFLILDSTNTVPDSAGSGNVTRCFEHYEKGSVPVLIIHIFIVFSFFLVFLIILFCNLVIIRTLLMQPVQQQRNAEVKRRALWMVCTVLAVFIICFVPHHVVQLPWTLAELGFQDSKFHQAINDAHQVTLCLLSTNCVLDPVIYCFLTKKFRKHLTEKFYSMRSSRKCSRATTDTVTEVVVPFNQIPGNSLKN

| Compound | pKi |
| --- | --- |
| CCCCCCCCCCCCCCCCCCNC(=O)OCC(COCCCC[n+]1ccsc1)OC(=O)OC (centres undefined) [CAS_129364] | 7.41 and 7.77 |
| Cc1nnc2n1-c1sc(Br)cc1C(c1ccccc1Cl)=NC2 [2-Bromo-4-(2-chloro-phenyl)-9-methyl-6H-1-thia-5,7,8,9a-tetraaza-cyclopenta[e]azulene] | 7.09 and 7.76 |
| CCCCCCCCCCCCCCCCCCNC(=O)OCC1CCC(COP(=O)([O-])OCC[n+]2cccc3ccccc32)O1 (centres undefined) [NSC_108044] | 6.89 |
| C[C@@H]1C(=O)O[C@H]2[C@H](O)C34[C@H]5C[C@@H](C(C)(C)C)C36C(O)C(=O)O[C@H]6O[C@@]4(C(=O)O5)[C@@]12O (some centres undefined) [BN 52021] | 6.02 and 6.19 |
